# Laboratory results from ChEMBL document CHEMBL6177998, “Rational Design of Dual Degraders by Incorporating Molecular Glue Structural Features into PROTAC Degraders” (J Med Chem, 2025).
# The source made the active and inactive calls. No cut-off for these calls is given here.
# Tests used:
# [1] = target: T1, Protein cereblon/Androgen receptor (Homo sapiens, UniProt P10275+Q96SW2); assay: PROTAC activity at CRBN/AR in human 22Rv1 cells assessed as induction of AR degradation at 0.01 uM incubated for 24 hrs by Western blot analysis relative to control; format: cell-based
# [2] = target: T1, Protein cereblon/Androgen receptor; assay: PROTAC activity at CRBN/AR in human VCaP cells assessed as induction of AR degradation at 0.01 uM incubated for 24 hrs by Western blot analysis relative to control; format: cell-based
# [3] = target: T1, Protein cereblon/Androgen receptor; assay: PROTAC activity at CRBN/AR in human 22Rv1 cells assessed as induction of AR degradation at 20 nM incubated for 18 hrs by Western blot analysis (reference value: 0 %); format: cell-based
# [4] = target: T1, Protein cereblon/Androgen receptor; assay: PROTAC activity at CRBN/AR in human 22Rv1 cells assessed as induction of AR degradation at 20 nM incubated for 36 hrs by Western blot analysis (reference value: 0 %); format: cell-based
# [5] = tested on: Protein cereblon/Androgen receptor (Homo sapiens), P10275+Q96SW2 [UNDEFINED MUTATION]; assay: PROTAC activity at CRBN/Androgen receptor splice variant 7 in human 22Rv1 cells assessed as induction of AR-V7 degradation at 20 nM incubated for 1 hrs by Western blot analysis (reference value: 0%); format: cell-based
# [6] = target: T2, Protein cereblon/Eukaryotic peptide chain release factor GTP-binding subunit ERF3A (Homo sapiens, UniProt Q96SW2+P15170); assay: Molecular glue activity at CRBN/GSPT1 in human 22Rv1 cells assessed as induction of GSPT1 degradation at 20 nM incubated for 2 hrs by Western blot analysis (reference value: 0 %); format: cell-based
# [7] = target: T1, Protein cereblon/Androgen receptor; assay: PROTAC activity at CRBN/AR in human LNCaP cells assessed as induction of AR degradation at 20 nM by Western blot analysis; format: cell-based; conditions: time 1-36 hrs
# [8] = target: T2, Protein cereblon/Eukaryotic peptide chain release factor GTP-binding subunit ERF3A; assay: Molecular glue activity at CRBN/GSPT1 in human LNCaP cells assessed as induction of GSPT1 degradation at 20 nM by Western blot analysis; format: cell-based; conditions: time 1-36 hrs
# [9] = target: T1, Protein cereblon/Androgen receptor; assay: PROTAC activity at CRBN/AR in human 22Rv1 cells assessed as induction of AR degradation by measuring maximal efficacy incubated for 24 hrs by Western blot analysis relative to control; format: cell-based
# [10] = tested on: Protein cereblon/Androgen receptor (Homo sapiens), P10275+Q96SW2 [UNDEFINED MUTATION]; assay: PROTAC activity at CRBN/Androgen receptor splice variant 7 in human VCaP cells assessed as induction of AR-V7 degradation by measuring maximal efficacy incubated for 24 hrs by Western blot analysis relative to control; format: cell-based
# [11] = target: T1, Protein cereblon/Androgen receptor; assay: PROTAC activity at CRBN/AR in human 22Rv1 cells assessed as induction of AR degradation at 50 nM preincubated with MG132 followed by compound addition and measured after 12 hrs by Western blot analysis; format: cell-based
# [12] = target: T2, Protein cereblon/Eukaryotic peptide chain release factor GTP-binding subunit ERF3A; assay: Molecular glue activity at CRBN/GSPT1 in human 22Rv1 cells assessed as induction of GSPT1 degradation at 50 nM preincubated with MLN4924 followed by compound addition and measured after 12 hrs by Western blot analysis; format: cell-based
# [13] = target: T1, Protein cereblon/Androgen receptor; assay: PROTAC activity at CRBN/AR in human VCaP cells assessed as induction of AR degradation at 50 nM preincubated with MLN4924 followed by compound addition and measured after 12 hrs by Western blot analysis; format: cell-based
# [14] = tested on: Protein cereblon/Androgen receptor (Homo sapiens), P10275+Q96SW2 [UNDEFINED MUTATION]; assay: PROTAC activity at CRBN/Androgen receptor splice variant 7 in human 22Rv1 cells assessed as induction of AR-V7 degradation at 20 uM preincubated with EPI-002 for 4 hrs followed by compound addition and measured after 36 hrs by Western blot analysis; format: cell-based
# [15] = tested on: Protein cereblon/Androgen receptor (Homo sapiens), P10275+Q96SW2 [UNDEFINED MUTATION]; assay: PROTAC activity at CRBN/Androgen receptor splice variant 7 in human 22Rv1 cells assessed as induction of AR-V7 degradation at […] preincubated with thalidomide followed by compound addition and measured after 12 hrs by Western blot analysis; format: cell-based
# [16] = target: T2, Protein cereblon/Eukaryotic peptide chain release factor GTP-binding subunit ERF3A; assay: Molecular glue activity at CRBN/GSPT1 in human 22Rv1 cells assessed as induction of GSPT1 degradation at 20 uM preincubated with EPI-002 for 4 hrs followed by compound addition and measured after 36 hrs by Western blot analysis; format: cell-based
# [17] = target: T2, Protein cereblon/Eukaryotic peptide chain release factor GTP-binding subunit ERF3A; assay: Molecular glue activity at CRBN/GSPT1 in human 22Rv1 cells assessed as increase in GSPT1 polyubiquitination at 30 nM preincubated with compound for 12 hrs followed by MG132 addition and measured after 12 hrs by immunoprecipitation based Western blot analysis; format: cell-based; conditions: time 24.0 hrs
# [18] = target: T2, Protein cereblon/Eukaryotic peptide chain release factor GTP-binding subunit ERF3A; assay: Molecular glue activity at CRBN/GSPT1 in human 22Rv1 cells assessed as induction of GSPT1 degradation at 0.01 uM incubated for 6 hrs by Western blot analysis; format: cell-based
# [19] = target: Protein cereblon/Zinc finger protein Aiolos (Homo sapiens) (UniProt Q96SW2+Q9UKT9); assay: Molecular glue activity at CRBN/IKZF3 in human 22Rv1 cells assessed as induction of IKZF3 degradation at 1 uM incubated for 6 hrs by Western blot analysis; format: cell-based
# CWR22R [20] = assay: Upregulation of p53 signaling pathway related gene expression in human 22Rv1 cells at 3 nM incubated for 24 hrs by KEGG enrichment analysis; format: functional, cell-based
# CWR22R [21] = assay: Downregulation of MT-ATP8 gene expression in human 22Rv1 cells at 3 nM incubated for 24 hrs by Volcano plot analysis; format: functional, cell-based
# CWR22R [22] = assay: Downregulation of CCNB1IP1 gene expression in human 22Rv1 cells at 3 nM incubated for 24 hrs by Volcano plot analysis; format: functional, cell-based
# [23] = target: T1, Protein cereblon/Androgen receptor; assay: PROTAC activity at CRBN/AR in human 22Rv1 cells assessed as decrease in PSA mRNA level at 1 to 3 nM incubated for 24 hrs by qRT-PCR analysis; format: cell-based; conditions: dose 1-3 nM
# [24] = target: T1, Protein cereblon/Androgen receptor; assay: PROTAC activity at CRBN/AR in human LNCaP cells assessed as decrease in TMPRSS2 protein level incubated for 24 hrs by Western blot analysis; format: cell-based; conditions: dose 1-100 nM
# CWR22R [25] = assay: Cell cycle arrest in human 22Rv1 cells assessed as accumulation of cells at G1 phase at 1 nM incubated for 24 hrs by flow cytometric analysis (reference value: 49.7 %); format: functional
# CWR22R [26] = assay: Cell cycle arrest in human 22Rv1 cells assessed as accumulation of cells at G1 phase at 3 nM incubated for 24 hrs by flow cytometric analysis (reference value: 49.7 %); format: functional
# LNCaP = assay: Induction of apoptosis in human LNCaP cells assessed as increase in cleaved caspase-3 expression incubated for 24 hrs by Western blot analysis; format: functional, cell-based; conditions: dose 1-100 nM
# [27] = Inhibition of AR W741L mutant (unknown origin) transcriptional activity transfected in HEK293T cells co-transfected with PSA-luciferase reporter and pRL-TK assessed as reduction in PSA-luciferase activity incubated for 24 hrs by luminescence based microplate reader analysis; format: cell-based, Homo sapiens
# Androgen receptor = Androgen receptor (Homo sapiens, UniProt P10275, F877L); assay: Inhibition of AR F876L mutant (unknown origin) transcriptional activity transfected in HEK293T cells co-transfected with PSA-luciferase reporter and pRL-TK assessed as reduction in PSA-luciferase activity incubated for 24 hrs by luminescence based microplate reader analysis; format: cell-based
# [28] = Oral bioavailability in male ICR mouse at 10 mg/kg by LC-MS/MS analysis; format: ADME, organism-based; conditions: in vivo
# [29] = Toxicity in male NOD SCID mouse model xenografted with human LNCaP cells assessed as body weight loss at 20 mg/kg, po administered daily for 26 days; format: organism-based; conditions: in vivo, 624 h, time 26 day
# T2 sequence (P15170 whole entry, looked up): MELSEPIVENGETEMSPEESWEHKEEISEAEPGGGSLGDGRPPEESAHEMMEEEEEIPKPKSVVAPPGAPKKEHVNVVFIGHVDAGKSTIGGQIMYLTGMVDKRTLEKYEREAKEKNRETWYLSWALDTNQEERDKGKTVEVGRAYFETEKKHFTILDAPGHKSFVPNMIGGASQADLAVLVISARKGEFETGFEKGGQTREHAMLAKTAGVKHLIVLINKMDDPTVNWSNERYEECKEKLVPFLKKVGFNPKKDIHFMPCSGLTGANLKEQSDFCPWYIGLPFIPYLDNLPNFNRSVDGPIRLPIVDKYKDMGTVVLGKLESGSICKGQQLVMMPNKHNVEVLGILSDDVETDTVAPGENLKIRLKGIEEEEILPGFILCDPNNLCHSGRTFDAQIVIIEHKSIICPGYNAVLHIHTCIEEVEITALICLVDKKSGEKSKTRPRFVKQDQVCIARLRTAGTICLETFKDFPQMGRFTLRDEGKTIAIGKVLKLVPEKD
# T2 sequence (Q96SW2 whole entry, looked up): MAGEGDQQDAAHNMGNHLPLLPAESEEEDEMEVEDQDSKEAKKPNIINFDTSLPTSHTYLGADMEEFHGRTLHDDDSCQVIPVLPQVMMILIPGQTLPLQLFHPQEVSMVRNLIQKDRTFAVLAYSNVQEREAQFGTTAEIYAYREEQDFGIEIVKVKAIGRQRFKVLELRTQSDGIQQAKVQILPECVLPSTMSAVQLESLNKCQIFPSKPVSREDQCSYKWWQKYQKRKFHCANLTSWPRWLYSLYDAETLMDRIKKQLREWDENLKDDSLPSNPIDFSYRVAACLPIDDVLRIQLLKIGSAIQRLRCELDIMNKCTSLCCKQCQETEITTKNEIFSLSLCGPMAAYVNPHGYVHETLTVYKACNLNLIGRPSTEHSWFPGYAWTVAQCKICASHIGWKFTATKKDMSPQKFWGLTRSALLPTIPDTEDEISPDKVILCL
# Protein cereblon/Androgen receptor (Homo sapiens), P10275+Q96SW2 [UNDEFINED MUTATION], sequence (P10275 whole entry, looked up, change not shown, canonical isoform): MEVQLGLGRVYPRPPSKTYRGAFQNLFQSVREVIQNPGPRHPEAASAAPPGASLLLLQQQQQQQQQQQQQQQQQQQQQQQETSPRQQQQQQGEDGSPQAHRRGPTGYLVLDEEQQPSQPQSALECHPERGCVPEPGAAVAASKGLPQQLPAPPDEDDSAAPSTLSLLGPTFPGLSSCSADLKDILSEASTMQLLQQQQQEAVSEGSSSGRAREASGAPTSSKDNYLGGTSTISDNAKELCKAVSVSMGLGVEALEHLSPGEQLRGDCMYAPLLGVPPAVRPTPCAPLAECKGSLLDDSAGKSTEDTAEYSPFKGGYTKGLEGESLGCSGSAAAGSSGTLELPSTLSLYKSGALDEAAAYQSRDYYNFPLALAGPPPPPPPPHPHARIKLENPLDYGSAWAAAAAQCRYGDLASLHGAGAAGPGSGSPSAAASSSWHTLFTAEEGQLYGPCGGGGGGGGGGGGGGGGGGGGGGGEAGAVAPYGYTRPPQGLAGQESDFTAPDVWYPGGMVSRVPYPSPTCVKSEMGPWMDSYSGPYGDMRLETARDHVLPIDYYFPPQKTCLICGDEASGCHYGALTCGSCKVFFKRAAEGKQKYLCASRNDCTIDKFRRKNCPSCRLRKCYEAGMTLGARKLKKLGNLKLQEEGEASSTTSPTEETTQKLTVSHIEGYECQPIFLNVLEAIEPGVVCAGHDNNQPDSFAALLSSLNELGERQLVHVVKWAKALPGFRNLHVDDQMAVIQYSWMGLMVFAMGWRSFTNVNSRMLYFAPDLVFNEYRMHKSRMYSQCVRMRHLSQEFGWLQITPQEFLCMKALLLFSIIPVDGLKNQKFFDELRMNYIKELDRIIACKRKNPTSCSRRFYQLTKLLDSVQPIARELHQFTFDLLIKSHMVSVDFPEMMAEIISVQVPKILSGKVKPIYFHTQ
# Protein cereblon/Androgen receptor (Homo sapiens), P10275+Q96SW2 [UNDEFINED MUTATION], sequence (Q96SW2 whole entry, looked up, change not shown, canonical isoform): as the sequence (Q96SW2 whole entry, looked up) above
# T1 sequence (P10275 whole entry, looked up): as the sequence (P10275 whole entry, looked up, change not shown, canonical isoform) above
# T1 sequence (Q96SW2 whole entry, looked up): as the sequence (Q96SW2 whole entry, looked up) above
# Androgen receptor, sequence (P10275 whole entry F877L): as the sequence (P10275 whole entry, looked up, change not shown, canonical isoform) above, with F877L counted along it
# Protein cereblon/Zinc finger protein Aiolos (Homo sapiens), sequence (Q96SW2 whole entry, looked up): as the sequence (Q96SW2 whole entry, looked up) above
# Protein cereblon/Zinc finger protein Aiolos (Homo sapiens), sequence (Q9UKT9 whole entry, looked up): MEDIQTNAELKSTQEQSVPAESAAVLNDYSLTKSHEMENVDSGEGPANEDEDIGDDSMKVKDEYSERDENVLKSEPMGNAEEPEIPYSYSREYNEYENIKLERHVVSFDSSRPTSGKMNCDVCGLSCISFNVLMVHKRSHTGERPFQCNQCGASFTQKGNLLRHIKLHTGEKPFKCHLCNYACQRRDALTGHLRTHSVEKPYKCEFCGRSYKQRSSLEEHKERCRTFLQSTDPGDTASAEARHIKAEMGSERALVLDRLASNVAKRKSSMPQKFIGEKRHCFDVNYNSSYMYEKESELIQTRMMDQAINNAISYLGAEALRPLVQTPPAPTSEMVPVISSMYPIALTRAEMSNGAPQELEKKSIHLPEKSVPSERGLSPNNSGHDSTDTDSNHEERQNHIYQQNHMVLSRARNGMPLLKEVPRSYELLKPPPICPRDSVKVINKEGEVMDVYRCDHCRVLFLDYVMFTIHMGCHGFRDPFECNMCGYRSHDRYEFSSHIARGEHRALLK
smiles,measurement,setting,value
COc1ccc(C(C)(C)c2cc(Cl)c(OCC3CCN(C(=O)CCCCCNc4ccc5c(c4)C(=O)N(C4CCC(=O)NC4=O)C5=O)CC3)c(C#N)c2)cc1 (stereo unspecified),Activity,[1],75.2%
same,Activity,[2],89.4%
same,Activity,[3],84.1%
same,Activity,[4],92.1%
same,Activity,[5],13.3%
same,Activity,[6],74.6%
same,Activity,[7],Time-dependent-effect
same,Activity,[8],Time-dependent-effect
same,Emax,[9],90%
same,Emax,[10],77.9%
same,Activity,[11],inactive
same,Activity,[12],inactive
same,Activity,[13],inactive
same,Activity,[14],inactive
same,Activity,[15],inactive
same,Activity,[16],Active
same,Activity,[17],Active
same,Activity,[18],Active
same,Activity,[19],inactive
same,Activity,CWR22R [20],Active
same,Activity,CWR22R [21],Active
same,Activity,CWR22R [22],Active
same,Activity,[23],Active
same,Activity,[24],Dose-dependent-effect
same,Activity,CWR22R [25],50.3%
same,Activity,CWR22R [26],55.6%
same,Activity,LNCaP,Dose-dependent-effect
same,IC50,[27],62.3 nM
same,IC50,Androgen receptor,48.6 nM
same,bioavailability,[28],11.2%
same,Activity,[29],Non-toxic
